Experimental data: patent publication US10759793B2, “2-(pyrazolopyridin-3-yl)pyrimidine derivatives as JAK inhibitors” (ALMIRALL, S.A., priority 2015, dated 2020)

What was measured:
Type in all cases: biochemical
JAK3 = JAK3 (Homo sapiens (Human), UniProt P52333); assay: In vitro JAK kinase assay (TR-FRET), JAK3; conditions: catalytic domain aa 795-1124, GST-fusion; ATP 0.6 μM; peptide 140 nM; 30 minutes at room temperature
Experimental: (§1) Compounds were screened for their ability to inhibit JAK1, JAK2 and JAK3 using the assays as indicated below. […] The enzymatic activity was assayed using as substrate a biotinylated peptide, poly (GT)-Biotin (CisBio). […] The degree of phosphorylation was detected by TR-FRET (time-resolved fluorescence energy transfer). […] The enzymatic reactions took place for 30 minutes at room temperature. […] Incubate for 3 h and read on Victor 2V spectrofluorometer (Perkin Elmer) set to read fluorescence resonance energy transfer.

JAK2 = JAK2 (Homo sapiens (Human), UniProt O60674); assay: In vitro JAK kinase assay (TR-FRET), JAK2; conditions: catalytic domain aa 826-1132, GST-fusion; ATP 0.2 μM; peptide 20 nM; 30 minutes at room temperature
Chain of JAK2 (O60674 826-1132): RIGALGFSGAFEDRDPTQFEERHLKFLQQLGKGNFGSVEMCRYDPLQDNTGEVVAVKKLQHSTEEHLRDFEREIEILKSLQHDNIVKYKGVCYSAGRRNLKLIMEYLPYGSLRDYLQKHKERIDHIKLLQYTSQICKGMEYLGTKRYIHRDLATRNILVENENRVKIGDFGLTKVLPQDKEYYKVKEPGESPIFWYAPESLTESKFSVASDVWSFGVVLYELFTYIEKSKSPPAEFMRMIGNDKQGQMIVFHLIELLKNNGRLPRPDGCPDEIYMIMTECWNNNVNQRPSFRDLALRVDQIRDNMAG
Experimental: as §1

JAK1 = JAK1 (Homo sapiens (Human), UniProt P23458); assay: In vitro JAK kinase assay (TR-FRET), JAK1; conditions: catalytic domain aa 850-1154, GST-fusion; ATP 3 μM; peptide 60 nM; 30 minutes at room temperature
Chain of JAK1 (P23458 850-1154): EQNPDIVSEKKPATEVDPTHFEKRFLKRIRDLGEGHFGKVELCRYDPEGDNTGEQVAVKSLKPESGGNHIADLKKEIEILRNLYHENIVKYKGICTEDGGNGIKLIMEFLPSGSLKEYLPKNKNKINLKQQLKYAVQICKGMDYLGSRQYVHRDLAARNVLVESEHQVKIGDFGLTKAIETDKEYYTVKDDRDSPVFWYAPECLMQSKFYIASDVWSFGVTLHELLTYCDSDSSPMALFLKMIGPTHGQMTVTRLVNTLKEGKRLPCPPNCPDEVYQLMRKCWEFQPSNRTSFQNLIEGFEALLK
Experimental: as §1

Chain of JAK3 (P52333 795-1124): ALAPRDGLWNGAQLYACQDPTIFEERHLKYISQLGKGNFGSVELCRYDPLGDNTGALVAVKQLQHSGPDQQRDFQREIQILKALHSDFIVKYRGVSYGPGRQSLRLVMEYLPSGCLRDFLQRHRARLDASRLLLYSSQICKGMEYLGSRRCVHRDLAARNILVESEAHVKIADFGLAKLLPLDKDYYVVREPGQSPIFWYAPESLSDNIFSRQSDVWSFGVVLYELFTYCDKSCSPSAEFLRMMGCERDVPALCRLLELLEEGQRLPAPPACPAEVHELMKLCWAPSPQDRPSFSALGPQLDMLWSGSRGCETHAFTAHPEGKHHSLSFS

Row | IC50 (JAK3) | IC50 (JAK2) | IC50 (JAK1) | Compound
1 | 3 nM | 0.5 nM | 12 nM | N#CC[C@H]1CC[C@H](Nc2nc(-c3cnn4ccccc34)nc(N3CCC(O)CC3)c2F)CC1 [Example 1, (Trans-4-{[5-fluoro-6-(4-hydroxypiperidin-1-yl)-2-pyrazolo[1,5-a]pyridin-3-ylpyrimidin-4-yl]amino}cyclohexyl)acetonitrile]
2 | 4 nM | 1 nM | 82 nM | N#CC[C@H]1CC[C@H](Nc2nc(-c3cnn4ccccc34)nc(N3CCC(N)CC3)c2F)CC1 [Example 2, (Trans-4-{[6-(4-aminopiperidin-1-yl)-5-fluoro-2-pyrazolo[1,5-a]pyridin-3-ylpyrimidin-4-yl]amino}cyclohexyl)acetonitrile]
3 | 4 nM | 0.8 nM | 150 nM | N#CC[C@H]1CC[C@H](Nc2nc(-c3cnn4ccccc34)nc(N3CCNCC3)c2F)CC1 [Example 3, {Trans-4-[(5-fluoro-6-piperazin-1-yl-2-pyrazolo[1,5-a]pyridin-3-ylpyrimidin-4-yl)amino]cyclohexyl}acetonitrile]
4 | 4 nM | 1 nM | 220 nM | CN(C)C1CCN(c2nc(-c3cnn4ccccc34)nc(N[C@H]3CC[C@H](CC#N)CC3)c2F)CC1 [Example 4, [Trans-4-({6-[4-(dimethylamino)piperidin-1-yl]-5-fluoro-2-pyrazolo[1,5-a]pyridin-3-ylpyrimidin-4-yl}amino)cyclohexyl]acetonitrile]
5 | 2 nM | 0.5 nM | 9 nM | N#CC[C@H]1CC[C@H](Nc2nc(-c3cnn4ccccc34)nc(OCCO)c2F)CC1 [Example 5, (Trans-4-{[5-fluoro-6-(2-hydroxyethoxy)-2-pyrazolo[1,5-a]pyridin-3-ylpyrimidin-4-yl]amino}cyclohexyl)acetonitrile]
6 | 3 nM | 0.7 nM | 15 nM | N#CC[C@H]1CC[C@H](Nc2nc(-c3cnn4ccccc34)nc(OC[C@@H](O)CO)c2F)CC1 [Example 6, {Trans-4-[(6-{[(2S)-2,3-dihydroxypropyl]oxy}-5-fluoro-2-pyrazolo[1,5-a]pyridin-3-ylpyrimidin-4-yl)amino]cyclohexyl}acetonitrile]
7 | 2 nM | 0.5 nM | 10 nM | N#CC[C@H]1CC[C@H](Nc2nc(-c3cnn4ccccc34)nc(OC[C@H](O)CO)c2F)CC1 [Example 7, {Trans-4-[(6-{[(2R)-2,3-dihydroxypropyl]oxy}-5-fluoro-2-pyrazolo[1,5-a]pyridin-3-ylpyrimidin-4-yl)amino]cyclohexyl}acetonitrile]
8 | 10 nM | – | 16 nM | N#CC[C@H]1CC[C@H](Nc2nc(-c3cnn4ccccc34)nc(NCCO)c2F)CC1 [Example 8, [Trans-4-({5-fluoro-6-[(2-hydroxyethyl)amino]-2-pyrazolo[1,5-a]pyridin-3-ylpyrimidin-4-yl}amino)cyclohexyl]acetonitrile]
9 | 3 nM | 0.7 nM | 85 nM | CN(C)CCOc1nc(-c2cnn3ccccc23)nc(N[C@H]2CC[C@H](CC#N)CC2)c1F [Example 9, [trans-4-({6-[2-(dimethylamino)ethoxy]-5-fluoro-2-pyrazolo[1,5-a]pyridin-3-ylpyrimidin-4-yl}amino)cyclohexyl]acetonitrile]
10 | 3 nM | 1 nM | 40 nM | C[C@H](Nc1nc(-c2cnn3ccccc23)nc(N2CCC(N)CC2)c1F)c1ccc(F)cn1 [Example 11, 6-(4-Aminopiperidin-1-yl)-5-fluoro-N-[(1S)-1-(5-fluoropyridin-2-yl)ethyl]-2-pyrazolo[1,5-a]pyridin-3-ylpyrimidin-4-amine]
11 | 4 nM | 0.5 nM | 4 nM | C[C@H](Nc1nc(-c2cnn3ccccc23)nc(OCCO)c1F)c1ncc(F)cn1 [Example 12, 2-[(5-Fluoro-6-{[(1S)-1-(5-fluoropyrimidin-2-yl)ethyl]amino}-2-pyrazolo[1,5-a]pyridin-3-ylpyrimidin-4-yl)oxy]ethanol]
12 | 4 nM | 1 nM | 4 nM | C[C@H](Nc1nc(-c2cnn3ccccc23)nc(OC[C@@H](O)CO)c1F)c1ncc(F)cn1 [Example 13, (2S)-3-[(5-fluoro-6-{[(1S)-1-(5-fluoropyrimidin-2-yl)ethyl]amino}-2-pyrazolo[1,5-a]pyridin-3-ylpyrimidin-4-yl)oxy]propane-1,2-diol]
13 | 1 nM | 0.5 nM | 1 nM | N#CCC(=O)N1CCC[C@@H](Nc2nc(-c3cnn4ccccc34)nc(OCCO)c2F)C1 [Example 14, 3-((3R)-3-{[5-fluoro-6-(2-hydroxyethoxy)-2-pyrazolo[1,5-a]pyridin-3-ylpyrimidin-4-yl]amino}piperidin-1-yl)-3-oxopropanenitrile]
14 | 1 nM | 0.7 nM | 4 nM | CCOCCOc1nc(-c2cnn3ccccc23)nc(N[C@@H]2CCCN(C(=O)CC#N)C2)c1F [Example 16, 3-((3R)-3-{[6-(2-ethoxyethoxy)-5-fluoro-2-pyrazolo[1,5-a]pyridin-3-ylpyrimidin-4-yl]amino}piperidin-1-yl)-3-oxopropanenitrile]
15 | 1 nM | 0.6 nM | 2 nM | N#CCC(=O)N1CCC[C@@H](Nc2nc(-c3cnn4ccccc34)nc(-c3ccc(CO)cc3)c2F)C1 [Example 17, 3-[(3R)-3-({5-Fluoro-6-[4-(hydroxymethyl)phenyl]-2-pyrazolo[1,5-a]pyridin-3-ylpyrimidin-4-yl}amino)piperidin-1-yl]-3-oxopropanenitrile]
16 | 2 nM | 0.6 nM | 1 nM | N#CCC(=O)N1CCC[C@@H](Nc2nc(-c3cnn4ccccc34)nc(-c3ccc(N)nc3)c2F)C1 [Example 18, 3-((3R)-3-{[6-(6-Aminopyridin-3-yl)-5-fluoro-2-pyrazolo[1,5-a]pyridin-3-ylpyrimidin-4-yl]amino}piperidin-1-yl)-3-oxopropanenitrile]
17 | – | – | 7 nM | COc1ccc(-c2nc(-c3cnn4ccccc34)nc(N[C@@H]3CCCN(C(=O)CO)C3)c2F)cn1 [Example 35, 2-((3R)-3-{[5-Fluoro-6-(6-methoxypyridin-3-yl)-2-pyrazolo[1,5-a]pyridin-3-ylpyrimidin-4-yl]amino}piperidin-1-yl)-2-oxoethanol]
18 | 5 nM | – | 13 nM | NC(=O)c1nc(-c2cnn3ccccc23)nc(N[C@@H]2CCCN(C(=O)CO)C2)c1F [Example 48, 5-Fluoro-6-{[(3R)-1-glycoloylpiperidin-3-yl]amino}-2-pyrazolo[1,5-a]pyridin-3-ylpyrimidine-4-carboxamide]
19 | – | – | 7 nM | N#Cc1cnc(N2CCC[C@@H](Nc3nc(-c4cnn5ccccc45)nc(OCCO)c3F)C2)cn1 [Example 54, 5-((3R)-3-{[5-fluoro-6-(2-hydroxyethoxy)-2-pyrazolo[1,5-a]pyridin-3-ylpyrimidin-4-yl]amino}piperidin-1-yl)pyrazine-2-carbonitrile]
20 | 4 nM | – | 10 nM | N#CCC(=O)N1CCC[C@@H](Oc2nc(-c3cnn4ccccc34)nc(OCCO)c2F)C1 [Example 66, 3-((3R)-3-{[5-Fluoro-6-(2-hydroxyethoxy)-2-pyrazolo[1,5-a]pyridin-3-ylpyrimidin-4-yl]oxy}piperidin-1-yl)-3-oxopropanenitrile]
21 | 6 nM | – | 2 nM | O=C(O)c1ccc(-c2nc(-c3cnn4ccccc34)nc(N[C@@H]3CCCN(C(=O)CO)C3)c2F)cn1 [Example 79, 5-(5-Fluoro-6-{[(3R)-1-glycoloylpiperidin-3-yl]amino}-2-pyrazolo[1,5-a]pyridin-3-ylpyrimidin-4-yl)pyridine-2-carboxylic acid]
22 | 4 nM | – | 32 nM | CCOCCOc1nc(-c2cnn3ccccc23)nc(N[C@@H]2CCCN(C(=O)CO)C2)c1F [Example 83, 2-((3R)-3-{[6-(2-Ethoxyethoxy)-5-fluoro-2-pyrazolo[1,5-a]pyridin-3-ylpyrimidin-4-yl]amino}piperidin-1-yl)-2-oxoethanol]
23 | 5 nM | – | 2 nM | O=C(CO)N1CCC[C@@H](Nc2nc(-c3cnn4ccccc34)nc(-c3ccc(CO)nc3)c2F)C1 [Example 84, 2-[(3R)-3-({5-Fluoro-6-[6-(hydroxymethyl)pyridin-3-yl]-2-pyrazolo[1,5-a]pyridin-3-ylpyrimidin-4-yl}amino)piperidin-1-yl]-2-oxoethanol]
24 | 5 nM | – | 3 nM | COc1cc(-c2cc(N[C@@H]3CCCN(C(=O)CO)C3)nc(-c3cnn4ccccc34)n2)ccn1 [Example 98, 2-((3R)-3-{[6-(2-Methoxypyridin-4-yl)-2-pyrazolo[1,5-a]pyridin-3-ylpyrimidin-4-yl]amino}piperidin-1-yl)-2-oxoethanol]

Row | Compound | IC50 (JAK3) | IC50 (JAK2) | IC50 (JAK1)
25 | 3-((3R)-3-{[5-Fluoro-6-(4-hydroxypiperidin-1-yl)-2-pyrazolo[1,5-a]pyridin-3-ylpyrimidin-4-yl]oxy}piperidin-1-yl)-3-oxopropanenitrile [Example 76] | 5 nM | 1 nM | 9 nM
26 | 3-{(3R)-3-[(6-Methoxy-2-pyrazolo[1,5-a]pyridin-3-ylpyrimidin-4-yl)amino]piperidin-1-yl}-3-oxopropanenitrile [Example 95] | 7 nM | 3 nM | 3 nM
27 | CCCCOc1nc(-c2cnn3ccccc23)nc(N[C@@H]2CCCN(C(=O)CC#N)C2)c1F [Example 15, 3-{(3R)-3-[(6-butoxy-5-fluoro-2-pyrazolo[1,5-a]pyridin-3-ylpyrimidin-4-yl)amino]piperidin-1-yl}-3-oxopropanenitrile] | 2 nM | 1 nM | 13 nM
